# Assays:
# [1] = target: dogNav1.7 (Canis lupus familiaris, UniProt A0A8I3P4Z8); test: cell-based; assay type: cell-based, dog
# [2] = target: KvLQT (Homo sapiens, UniProt P51787); test: Blockade of KvLQT potassium channels
# [3] = tested on: cynomolgus TRPV1 receptor; test: Blockade of cynomolgus TRPV1 receptor; conditions: tested concentrations up to 10 μM
# [4] = tested on: human DRG neurons (hDRG neurons); test: Voltage clamp of TTX-S current in human DRG neurons; assay type: cell-based
# [5] = target: Abl kinase receptor (Homo sapiens, UniProt P00519); test: Off target activity panel; assay type: biochemical; conditions: read-out: Inhibition at test concentration (%)
# [6] = target: Angiotensin converting enzyme (Homo sapiens, UniProt P12821); test: Off target activity panel; assay type: biochemical; conditions: read-out: Inhibition at test concentration (%)
# [7] = target: Acetylcholinesterase (Homo sapiens, UniProt P22303); test: Off target activity panel; assay type: biochemical; conditions: read-out: Inhibition at test concentration (%)
# [8] = tested on: Adrenergic alpha 1 receptor; test: Off target activity panel; assay type: binding; conditions: 10 µM
# [9] = tested on: AMPA receptor; test: Off target activity panel; assay type: binding; conditions: 10 µM
# [10] = target: Beta 2 adrenergic receptor (Homo sapiens, UniProt P07550); test: Off target activity panel; assay type: binding; conditions: read-out: Inhibition at test concentration (%)
# [11] = tested on: Calcium channel L-type (diltiazem site); test: Off target activity panel; assay type: binding; conditions: 10 µM
# [12] = target: Cannabinoid receptor 2 (Homo sapiens, UniProt P34972); test: Off target activity panel; assay type: binding; conditions: read-out: Inhibition at test concentration (%)
# [13] = target: Choline transporter (Homo sapiens, UniProt Q9GZV3); test: Off target activity panel; assay type: binding; conditions: read-out: Inhibition at test concentration (%)
# [14] = target: Cyclooxygenase 1 (Homo sapiens, UniProt P23219); test: Off target activity panel; assay type: biochemical; conditions: read-out: Inhibition at test concentration (%)
# [15] = target: Cyclooxegenase 2 (Homo sapiens, UniProt P35354); test: Off target activity panel; assay type: biochemical
# [16] = target: Delta opioid receptor (Homo sapiens, UniProt P41143); test: Off target activity panel; assay type: binding; conditions: read-out: Inhibition at test concentration (%)
# [17] = target: Dopamine D1 receptor (Homo sapiens, UniProt P21728); test: Off target activity panel; assay type: binding; conditions: read-out: Inhibition at test concentration (%)
# [18] = target: Dopamine D2 receptor (Homo sapiens, UniProt P14416); test: Off target activity panel; assay type: binding; conditions: read-out: Inhibition at test concentration (%)
# [19] = target: Dopamine D4 receptor (Homo sapiens, UniProt P21917); test: Off target activity panel; assay type: binding; conditions: read-out: Inhibition at test concentration (%)
# [20] = target: Dopamine transporter (Homo sapiens, UniProt Q01959); test: Off target activity panel; assay type: binding; conditions: read-out: Inhibition at test concentration (%)
# [21] = tested on: GABA transporter; test: Off target activity panel; assay type: binding; conditions: 10 µM
# [22] = target: Kappa opioid receptor (Homo sapiens, UniProt P41145); test: Off target activity panel; assay type: binding
# [23] = target: Lyn A kinase (Homo sapiens, UniProt P07948); test: Off target activity panel; assay type: biochemical
# [24] = Off target activity panel; assay type: binding; conditions: read-out: Inhibition at test concentration (%)
# [25] = target: Muscarinic M2 receptor (Homo sapiens, UniProt P08172); test: Off target activity panel; assay type: binding; conditions: read-out: Inhibition at test concentration (%)
# [26] = target: Muscarinic M3 receptor (Homo sapiens, UniProt P20309); test: Off target activity panel; assay type: binding; conditions: read-out: Inhibition at test concentration (%)
# [27] = tested on: Muscle-type nicotinic receptor; test: Off target activity panel; assay type: binding; conditions: 10 µM
# [28] = tested on: NMDA receptor (phencyclidine site); test: Off target activity panel; assay type: binding; conditions: 10 µM
# [29] = target: Norepinephrine transporter (Homo sapiens, UniProt P23975); test: Off target activity panel; assay type: binding; conditions: read-out: Inhibition at test concentration (%)
# [30] = target: p38alpha kinase (Homo sapiens, UniProt Q16539); test: Off target activity panel; assay type: biochemical; conditions: read-out: Inhibition at test concentration (%)
# [31] = target: PDE2A (Homo sapiens, UniProt O00408); test: Off target activity panel; assay type: biochemical; conditions: read-out: Inhibition at test concentration (%)
# [32] = target: PDE5 (Homo sapiens, UniProt O76074); test: Off target activity panel; assay type: biochemical; conditions: read-out: Inhibition at test concentration (%)
# [33] = target: Serotonin 5-HT transporter (Homo sapiens, UniProt P31645); test: Off target activity panel; assay type: binding; conditions: read-out: Inhibition at test concentration (%)
# [34] = target: Serotonin 5-HT2A (Homo sapiens, UniProt P28223); test: Off target activity panel; assay type: binding; conditions: read-out: Inhibition at test concentration (%)
# [35] = target: Serotonin 5-HT3 (Homo sapiens, UniProt P46098); test: Off target activity panel; assay type: binding; conditions: read-out: Inhibition at test concentration (%)
# [36] = target: Serotonin 5-HT7 (Homo sapiens, UniProt P34969); test: Off target activity panel; assay type: binding; conditions: read-out: Inhibition at test concentration (%)
# [37] = target: T1, PPAR gamma (Homo sapiens, UniProt P37231); test: Off target panel, functional activity (agonist/antagonist); assay type: biochemical; conditions: at 10 µM
# T1 sequence (P37231 1-505): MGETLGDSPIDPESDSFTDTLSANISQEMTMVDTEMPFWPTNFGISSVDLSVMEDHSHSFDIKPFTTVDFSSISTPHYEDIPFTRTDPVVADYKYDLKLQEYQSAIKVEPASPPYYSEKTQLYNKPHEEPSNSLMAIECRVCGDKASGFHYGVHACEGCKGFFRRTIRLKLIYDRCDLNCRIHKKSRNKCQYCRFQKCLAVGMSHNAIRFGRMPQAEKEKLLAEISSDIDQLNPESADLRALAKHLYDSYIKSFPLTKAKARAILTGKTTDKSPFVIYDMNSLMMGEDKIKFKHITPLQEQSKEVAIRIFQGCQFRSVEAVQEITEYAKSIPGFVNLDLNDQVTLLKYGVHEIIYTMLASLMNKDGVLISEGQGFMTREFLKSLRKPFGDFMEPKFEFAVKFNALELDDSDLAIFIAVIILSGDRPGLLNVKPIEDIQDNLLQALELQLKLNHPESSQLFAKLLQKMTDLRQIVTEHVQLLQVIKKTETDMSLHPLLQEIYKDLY
# [38] = 10 µM, read-out: Inhibition at test concentration (%)
smiles,measurement,setting,value
"Nc1[nH]ncc1-c1cc(Cl)ccc1Oc1cc(F)c(S(=O)(=O)Nc2cscn2)cc1Cl [PF-05089771, 4-[2-(5-amino-1H-pyrazol-4-yl)-4-chlorophenoxy]-5-chloro-2-fluoro-N-(1,3-thiazol-4-yl)benzenesulfonamide]",IC50,[1],13 nM
same,Slope,[1]; dogNav1.7,0.9
same,IC50,[2],10 µM
same,Blockade of cynomolgus TRPV1 receptor,[3],No blockade
same,Block of TTX-S current,"[4]; 30 nM, in presence of A-803467",75.5 ± 10.5%
same,Block of TTX-S current,[4]; 100 nM,complete block
same,IC50,"[4]; DRG neuron, read-out: IC50 for TTX-S current block",8.4 ± 1.2 nM
same,inhibition at 10 µM,[5],9%
same,inhibition at 10 µM,[6],-4%
same,inhibition at 10 µM,[7],17%
same,Inhibition at test concentration (%),[8],-5%
same,Inhibition at test concentration (%),[9],-13%
same,inhibition at 10 µM,[10],4%
same,Inhibition at test concentration (%),[11],16%
same,inhibition at 10 µM,[12],-5%
same,inhibition at 10 µM,[13],18%
same,inhibition at 10 µM,[14],18%
same,inhibition at 10 µM,[15]; [38],72%
same,Ki,[15]; Cyclooxegenase 2,5.4 µM
same,inhibition at 10 µM,[16],15%
same,inhibition at 10 µM,[17],0%
same,inhibition at 10 µM,[18],10%
same,inhibition at 10 µM,[19],5%
same,inhibition at 10 µM,[20],18%
same,Inhibition at test concentration (%),[21],1%
same,inhibition at 10 µM,[22]; [38],86%
same,Ki,[22]; Kappa opioid receptor,390 nM
same,inhibition at 10 µM,[23]; [38],51%
same,Ki,[23]; Lyn A kinase,7.3 µM
same,inhibition at 10 µM,[24],64%
same,inhibition at 10 µM,[25],3%
same,inhibition at 10 µM,[26],16%
same,Inhibition at test concentration (%),[27],2%
same,Inhibition at test concentration (%),[28],-3%
same,inhibition at 10 µM,[29],27%
same,inhibition at 10 µM,[30],8%
same,inhibition at 10 µM,[31],9%
same,inhibition at 10 µM,[32],7%
same,inhibition at 10 µM,[33],0%
same,inhibition at 10 µM,[34],-2%
same,inhibition at 10 µM,[35],4%
same,inhibition at 10 µM,[36],-7%
same,Functional activity,[37],no agonist or antagonist activity at 10 µM
